Assay type in all cases: in vivo
For one data set, the system named is Wheat kernels. Briefly: Germination rate of wheat in combination with fungicides (greenhouse). The settings on record: fungicides 25 g/dt in NMP, compound A1 0.1 mg/ha, soil, greenhouse 15° C., 70% humidity, 7 days, solvent control 69. How it is done: The test is performed under greenhouse conditions.
Wheat kernels were treated with different fungicides (25 g/dt in NMP) or a mixture of compound A1 (0.1 mg/ha in 1:1, acetonitril/water) with the fungicides. Kernels were planted in soil and grown in the greenhouse at 15° C., 70% humidity, 14 h day/light cycle for 7 days.
Controls are performed in the same conditions in the absence of active ingredients. Assessment consisted of counting seedlings per treatment.

The next data set concerns maize. Briefly: Germination rate of maize in combination with insecticides (greenhouse). Particulars: clothianidin 1.25, imidacloprid 0.75 mg ai/corn, compound A1 1 mg/ha, greenhouse 10° C., 80% humidity, 9 days, solvent control 17. As to the method:
(§1) The test was performed under greenhouse conditions. Kernels were treated with different insecticides (ready formulated) or a mixture of compound A1 (1 mg/ha in 1:1, acetonitril/water) with the insecticides. Kernels were planted in soil and grown in the greenhouse at 20° C., 80% humidity, 12 h day/light cycle for 4 days (wheat) and at 10° C., 80% humidity, 12 h day/light cycle for 9 days (maize). Controls are performed in the same conditions in the absence of active ingredients. Assessment consisted of counting seedlings per treatment.

The next data set relates to wheat. The data set is described as follows: Germination rate of wheat in combination with insecticides (greenhouse). Particulars: thiacloprid 1.00 mg ai/corn, compound A1 1 mg/ha, greenhouse 20° C., 80% humidity, 4 days, solvent control 64. As to the method: as §1

In the case of `Cc1nn(C)c(F)c1C(=O)Nc1ccccc1C(C)CC(C)C` (stereo not drawn) [Penflufen], the “% germination” value in the data set on Wheat kernels amounted to 47%.

`CN/C(=N\[N+](=O)[O-])NCc1cnc(Cl)s1` [clothianidin]: the “germination % maize 9 d” value with maize was found to be 8%.

Turning to `N#Cc1c[nH]cc1-c1cccc2c1OC(F)(F)O2` [fludioxonil], in the data set on Wheat kernels, the “% germination” value is on record as 23%.

Consider `CO/N=C(/C1=NOCCO1)c1ccccc1Oc1ncnc(Oc2ccccc2Cl)c1F` [fluoxastrobin], for which, in the data set on Wheat kernels, the “% germination” value came to 4%.

As for `CC(C)(C)C(O)(CCc1ccc(Cl)cc1)Cn1cncn1` (stereo not drawn) [tebuconazole], in the data set with Wheat kernels, the “% germination” value worked out at 21%.

In the case of `N#C/N=C1\SCCN1Cc1ccc(Cl)nc1` [thiacloprid], the “germination % wheat 4 d” value with wheat turned out to be 9%.

The values above are taken from patent US20130345058A1, “USE OF LIPOCHITO-OLIGOSACCHARIDE COMPOUNDS FOR SAFEGUARDING SEED SAFETY OF TREATED SEEDS” (priority 2011, published 2013).
